# Experimental data as given in patent US20260041640A1 (INCYCLIX BIO, LLC, priority 2023, published 2026).
# Where “and” joins values, the source holds several entries; their conditions need not be identical. Equal entries are not always repeated. Where two headings read alike, the source gives them in different places.
# Experiment: First-in-human clinical study: plasma and whole blood PK of INX-315 (oral QD, ASD tablet)
# Format: in vivo
# Source text: All INX-315 tablets were taken at approximately the same time(s) each day.
# Samples will also be collected pre-dose on Cycle 1 Days 2, 8, 16, and Day 22, and pre-dose on Day 1 of each subsequent cycle.
# Standard non-compartmental PK parameters were estimated.
# Geometric mean and geometric CV % will be included in the summary statistics.
# PK parameters will be summarized descriptively by dosing cohort. AUC and Cmax values will also be presented in scatter plots. Dose proportionality will be assessed for AUC and Cmax using a power model. The 90% CI of the slope for each PK parameter will be estimated from the model and presented in a summary table.
# Cohort 1 enrollment of 6 subjects dosed at 100 mg oral QD was completed in October of 2023.
# Patients were upgraded to the 200 mg QD dose level and PK/PD plasma parameters were measured (FIG. 18A).
# Patients were administered the 200 mg QD and 300 mg QD dose levels and PK/PD plasma parameters were measured.
# [1] = plasma, 100 mg QD cohort, Day 1, individual subjects
# [2] = plasma, 100 mg QD cohort, Day 1, median
# [3] = plasma, 100 mg QD cohort, Day 15, individual subjects
# [4] = plasma, 100 mg QD cohort, Day 15, median
# [5] = plasma, 100 mg QD, Day 1, individual patients
# [6] = plasma, 100 mg QD, Day 15, individual patients
# [7] = plasma, 200 mg QD, Day 1, Cohort 2
# [8] = plasma, 200 mg QD, Day 1, individual subjects
# [9] = plasma, 200 mg QD, Day 15, Cohort 2
# [10] = plasma, 200 mg QD, Day 15, individual subjects
# [11] = plasma, 300 mg QD cohort, Day 1, individual subjects
# [12] = plasma, 300 mg QD cohort, Day 1, median
# [13] = plasma, 300 mg QD cohort, Day 15, individual subjects
# [14] = whole blood, 100 mg QD, Day 1, individual patients
# [15] = whole blood, 100 mg QD, Day 15, individual patients
structure (smiles),measurement,setting,value
NS(=O)(=O)c1ccc(Nc2ncc3cc4n(c3n2)C2(CCCCC2)C(=O)NN4)cc1 [INX-315],Tmax,"human, plasma, po, 100 mg, plasma, 100 mg QD cohort, Day 1, median, read-out: Tmax, Median",4 h
same,half-life,"human, plasma, po, 100 mg, plasma, 100 mg QD cohort, Day 1, median, read-out: t1/2, Median (converted)",15.6 h
same,AUC(0-t),"human, plasma, po, 100 mg, plasma, 100 mg QD cohort, Day 15, geometric mean, read-out: AUClast, Geometric Mean",3290 ng·h/mL
same,Cmax,"human, plasma, po, 100 mg, plasma, 100 mg QD cohort, Day 15, geometric mean, read-out: Cmax, Geometric Mean",211 ng/mL
same,half-life,"human, plasma, po, 100 mg, plasma, 100 mg QD cohort, Day 15, individual subjects, read-out: t1/2 (converted)",17.6 h
same,AUC(0-t),"human, plasma, po, 100 mg, plasma, 100 mg QD cohort, Day 15, median, read-out: AUClast, Median",3120 ng·h/mL
same,Cmax,"human, plasma, po, 100 mg, plasma, 100 mg QD cohort, Day 15, median, read-out: Cmax, Median",217 ng/mL
same,Tmax,"human, plasma, po, 100 mg, plasma, 100 mg QD cohort, Day 15, median, read-out: Tmax, Median",6 h
same,half-life,"human, whole blood, oral, 100 mg, preliminary data, first two patients, 100 mg QD, read-out: t1/2 (converted)",≥ 15 h
same,AUC(0-t),"human, whole blood, oral, 100 mg, whole blood, 100 mg QD, Day 1, Cohort 1 (Table 28), read-out: AUClast, geometric mean",34700 ng·h/mL
same,Cmax,"human, whole blood, oral, 100 mg, whole blood, 100 mg QD, Day 1, Cohort 1 (Table 28), read-out: Cmax, geometric mean",2280 ng/mL
same,Tmax,"human, whole blood, oral, 100 mg, whole blood, 100 mg QD, Day 1, Cohort 1 (Table 28), read-out: Tmax, median",6 h
same,half-life,"human, whole blood, oral, 100 mg, whole blood, 100 mg QD, Day 1, Cohort 1 (Table 28), read-out: t1/2, geometric mean (converted)",17.9 h
same,AUC,"human, whole blood, oral, 100 mg, whole blood, 100 mg QD, Day 1 observed, mean of first two patients, read-out: AUC",50600 ng·h/mL
same,Cmax,"human, whole blood, oral, 100 mg, whole blood, 100 mg QD, Day 1 observed, mean of first two patients, read-out: Cmax",3000 ng/mL
same,AUC(0-t),"human, whole blood, oral, 100 mg, whole blood, 100 mg QD, Day 15, Cohort 1 (Table 28), read-out: AUClast, median",62700 ng·h/mL
same,Cmax,"human, whole blood, oral, 100 mg, whole blood, 100 mg QD, Day 15, Cohort 1 (Table 28), read-out: Cmax, median",3580 ng/mL
same,Tmax,"human, whole blood, oral, 100 mg, whole blood, 100 mg QD, Day 15, Cohort 1 (Table 28), read-out: Tmax, median",6 h
same,half-life,"human, whole blood, oral, 100 mg, whole blood, 100 mg QD, Day 15, individual patients, read-out: t1/2 (converted)",21.6 h
same,AUC,"human, whole blood, oral, 100 mg, whole blood, 100 mg QD, Day 15 observed, mean of first two patients, read-out: AUC",116000 ng·h/mL
same,Cmax,"human, whole blood, oral, 100 mg, whole blood, 100 mg QD, Day 15 observed, mean of first two patients, read-out: Cmax",5440 ng/mL
same,AUC,"human, whole blood, oral, 200 mg, Cohort 2 (200 mg QD), Day 1, individual subjects, read-out: AUC Whole Blood",96600 ng·h/mL
same,AUC,"human, whole blood, oral, 300 mg, Cohort 3 (300 mg QD), Day 1, individual subjects, read-out: AUC Whole Blood",134000 ng·h/mL
same,AUC,"human, whole blood, oral, 300 mg, Cohort 3 (300 mg QD), Day 15, Tlast = 6 hours, read-out: AUC Whole Blood",43900 ng·h/mL
same,AUC,"human, whole blood, oral, 300 mg, Cohort 3 (300 mg QD), Day 15, individual subjects, read-out: AUC Whole Blood",86400 ng·h/mL
same,"Clast, geometric mean","plasma, 100 mg QD cohort, Day 1, geometric mean",48.7 ng/mL
same,AUClast,[1],2410 ng·h/mL and 1840 ng·h/mL and 3300 ng·h/mL and 2160 ng·h/mL and 3360 ng·h/mL and 633 ng·h/mL
same,Clast,[1],42.3 ng/mL and 50.7 ng/mL and 85.2 ng/mL and 31.9 ng/mL and 114 ng/mL and 20 ng/mL
same,Cmax,[1],320 ng/mL and 109 ng/mL and 197 ng/mL and 43.8 ng/mL
same,Tlast,[1],24 h
same,"Clast, median",[2],46.5 ng/mL
same,"Tlast, Median",[2],24 h
same,"Clast, geometric mean","plasma, 100 mg QD cohort, Day 15, geometric mean",90.6 ng/mL
same,AUClast,[3],6840 ng·h/mL and 1930 ng·h/mL and 1640 ng·h/mL and 5700 ng·h/mL
same,Clast,[3],188 ng/mL and 65.4 ng/mL and 63.1 ng/mL and 154 ng/mL and 51.2 ng/mL
same,Cmax,[3],424 ng/mL and 96.4 ng/mL and 344 ng/mL
same,Tlast,[3],24 h
same,t1/2,[3],16.0 h
same,"Clast, median",[4],65.4 ng/mL
same,"Tlast, Median",[4],24 h
same,dose proportionality of exposure (AUC),"plasma, 100 mg QD versus 200 mg QD",dose-proportional increase in exposure (or greater)
same,dose proportionality of exposure,"plasma, 100 mg QD versus 200 mg QD and 300 mg QD",dose-proportional increase in exposure (or greater)
same,"Clast, geometric mean","plasma, 100 mg QD, Day 1, Cohort 1 (Table 27)",61.4 ng/mL
same,AUClast,[5],3410 ng·h/mL and 2160 ng·h/mL and 2510 ng·h/mL and 1990 ng·h/mL
same,Clast,[5],119 ng/mL and 86.3 ng/mL and 33.9 ng/mL and 43.9 ng/mL and 57.0 ng/mL
same,Cmax,[5],194 ng/mL and 197 ng/mL and 179 ng/mL and 326 ng/mL and 119 ng/mL
same,Tlast,[5],24 h
same,t1/2,[5],8.88 h and 11.5 h and 16.7 h
same,AUClast,[6],5920 ng·h/mL
same,Clast,[6],199 ng/mL and 155 ng/mL
same,Cmax,[6],358 ng/mL
same,Tlast,[6],24 h
same,t1/2,[6],15.2 h
same,"Clast, geometric mean",[7],223 ng/mL
same,"Clast, median",[7],261 ng/mL
same,"Tlast, Median",[7],24 h
same,AUClast,[8],7300 ng·h/mL and 11300 ng·h/mL and 19100 ng·h/mL and 4540 ng·h/mL
same,Clast,[8],212 ng/mL and 291 ng/mL and 487 ng/mL and 69.7 ng/mL and 261 ng/mL
same,Cmax,[8],444 ng/mL and 800 ng/mL and 1140 ng/mL and 305 ng/mL
same,Tlast,[8],24 h
same,"Clast, geometric mean",[9],263 ng/mL
same,"Clast, median",[9],320 ng/mL
same,"Tlast, Median",[9],24 h
same,AUClast,[10],6560 ng·h/mL and 14300 ng·h/mL and 18100 ng·h/mL and 13200 ng·h/mL
same,Clast,[10],88.8 ng/mL and 324 ng/mL and 521 ng/mL and 317 ng/mL
same,Cmax,[10],1230 ng/mL and 997 ng/mL and 758 ng/mL
same,Tlast,[10],24 h
same,t1/2,[10],10.5 h and 14.3 h
same,"Clast, geometric mean","plasma, 300 mg QD cohort, Day 1, geometric mean",213 ng/mL
same,AUClast,[11],7590 ng·h/mL and 11000 ng·h/mL and 8080 ng·h/mL and 11500 ng·h/mL
same,Clast,[11],148 ng/mL and 135 ng/mL and 303 ng/mL and 219 ng/mL and 331 ng/mL
same,Cmax,[11],550 ng/mL and 490 ng/mL and 812 ng/mL
same,Tlast,[11],24 h
same,t1/2,[11],16.2 h
same,"Clast, median",[12],219 ng/mL
same,"Tlast, Median",[12],24 h
same,AUClast,[13],4430 ng·h/mL
same,Clast,[13],96.8 ng/mL and 359 ng/mL
same,Cmax,[13],840 ng/mL
same,Tlast,[13],24 h and 8 h
same,Tmax,[13],0.5 h
same,t1/2,[13],5.80 h
same,factor by which observed AUC exceeded the model,"whole blood, 100 mg QD, Day 1",9 ×
same,"Clast, geometric mean","whole blood, 100 mg QD, Day 1, Cohort 1 (Table 28)",956 ng/mL
same,AUClast,[14],60500 ng·h/mL and 40600 ng·h/mL and 37800 ng·h/mL and 32500 ng·h/mL and 13400 ng·h/mL and 43600 ng·h/mL
same,Clast,[14],1840 ng/mL and 1020 ng/mL and 1180 ng/mL and 719 ng/mL and 502 ng/mL and 954 ng/mL
same,Cmax,[14],3430 ng/mL and 2570 ng/mL and 2110 ng/mL and 2710 ng/mL and 805 ng/mL and 3470 ng/mL
same,Tlast,[14],24 h
same,t1/2,[14],22.4 h and 13.9 h and 20.5 h and 14.5 h and 27.4 h and 12.8 h
same,Cmin,"whole blood, 100 mg QD, Day 1 observed, mean of first two patients",1430 ng/mL
same,"Clast, median","whole blood, 100 mg QD, Day 15, Cohort 1 (Table 28)",1670 ng/mL
same,AUClast,[15],117000 ng·h/mL and 31400 ng·h/mL
same,Clast,[15],3220 ng/mL and 1670 ng/mL and 891 ng/mL
same,Cmax,[15],7290 ng/mL and 1820 ng/mL
same,Tlast,[15],24 h
same,t1/2,[15],18.3 h
same,Cmin,"whole blood, 100 mg QD, Day 15 observed, mean of first two patients",2445 ng/mL
same,Total Area,"whole blood, 100 mg QD, d 1, Patients 1 and 2",60740 and 41732
same,Total Area,"whole blood, 100 mg QD, d 15, Patients 1 and 2",118285 and 65180
